This passage reports Ki and MIC results from patent EP1401829B1, “NOVEL HETEROCYCLIC ANTIBACTERIAL COMPOUNDS” (Microbiotix, Inc., priority 2001, dated 2002).

In brackets after ≈: the same amount, converted by molar mass. Read-outs that look alike come from different tables or passages of the source. A value given as a limit tells only on which side of the number the result lay.

The target of one assay is T1, B. subtilis Pol IIIC (Bacillus subtilis, UniProt P13267).
T1 construct: made in house
Briefly: Polymerase IIIC (Pol IIIC) assay, determination of Ki values. The class given is biochemical. Particulars: Ki (µM) Pol IIIC, assay in absence of dGTP or dATP; Ki is the concentration that reduces control polymerase IIIC activity by 50 percent. As to the method: (§1) The following methods were used to characterize representative compounds. Minimal Inhibitory Concentration (MIC) determinations. MIC values were determined in 96 well plates, with bacterial growth monitored at OD 600 nm in 200µl following an initial bacterial seeding at approximately 1x10^5 colony forming units (CFU)/ml. Each drug is evaluated at five concentrations, with five data points at each dilution. MIC values (µg/ml) were determined against actively growing cultures in Heart-Brain Infusion (HBI) medium. Cell growth in cultures supplemented with a test compound was calculated as a percent of control at OD 600 nm after 16 to 18 hours at 37°C. […] Polymerase IIIC (Pol IIIC) assay. DNA polymerase activity (or inhibition thereof) was measured in a 96-well plate format. B. subtilis Pol IIIC was isolated as described by Hammond and Brown (Protein Expr. Purif., 3: 65-70 (1992)). Each 25 µl assay contained 30 mM Tris, pH 7.5, 10 mM magnesium acetate, 4 mM dithiothreitol, 20% glycerol, with 25 µM dATP, dCTP, dGTP and 10 µM dTTP (^3H-labelled at 1.44 Ci/mmole) and 0.4 mg/ml activated calf thymus DNA as substrates, as described previously (see Barnes et al, op. cit). Assays were initiated by the addition of 0.025 to 0.06 units of enzyme 1 unit is the amount required to incorporate 250 pmoles of [^3H] dTMP in a standard assay), incubated for 10 minutes at 30°C and terminated by the addition of 200 µl of cold 10% trichloroacetic acid (TCA),10 mM sodium pyrophosphate. Precipitated labeled DNA was collected on glass fiber filter plates, washed, dried, and counted in a liquid scintillation counter. Determination of Ki values. DNA polymerase activity was measured in a 96-well plate format in the absence of dGTP or dATP, depending on the structure of the test compound. Each 25 µl assay contained 30 mM Tris, pH 7.5, 10 mM magnesium acetate, 4 mM dithiothreitol, 20% glycerol, with 25 µM dATP, dCTP, and 10 µM dTTP (^3H-labelled at 1.44 Ci/mmole) and 0.4 mg/ml activated calf thymus DNA as substrates, as described previously. […] Assays were initiated by the addition of 0.025 to 0.06 units of enzyme (1 unit is the amount required to incorporate 250 pmoles of [^3H] dTMP in a standard assay), incubated for 10 minutes at 30 °C and terminated by the addition of 200 µl of cold 10% trichloroacetic acid, 10 mM sodium pyrophosphate. Precipitated labeled DNA was collected on glass fiber filter plates, washed, dried, and counted in a liquid scintillation counter. Ki is the concentration of test compound that reduces the control polymerase IIIC activity by 50 percent.

In a further assay the test system is B. subtilis. Nature of the assay: Minimal Inhibitory Concentration (MIC) determination, 96 well plates. In kind it is cell-based, Bacillus subtilis. Particulars: Bacillus subtilis; HBI medium, 16 to 18 hours at 37°C; read-out: MIC (µg/ml) B. subtilis. The protocol:
as §1
(§2) MIC values were determined for the Gram positive bacteria Bacillus subtilis, Staphylococcus aureus (two strains), Enterococcus fecalis, Enterococcus fecium, and for the Gram negative bacterium Escherichia coli.

In a further assay the test system is S. aureus. The assay is described as above. In kind it is cell-based, Staphylococcus aureus. Particulars: Staphylococcus aureus; HBI medium, 16 to 18 hours at 37°C; read-out: MIC (µg/ml) S. aureus. The protocol:
(§3) The following methods were used to characterize representative compounds. Minimal Inhibitory Concentration (MIC) determinations. MIC values were determined in 96 well plates, with bacterial growth monitored at OD 600 nm in 200µl following an initial bacterial seeding at approximately 1x10^5 colony forming units (CFU)/ml. Each drug is evaluated at five concentrations, with five data points at each dilution. MIC values (µg/ml) were determined against actively growing cultures in Heart-Brain Infusion (HBI) medium. Cell growth in cultures supplemented with a test compound was calculated as a percent of control at OD 600 nm after 16 to 18 hours at 37°C. This plate format conserves test compound and provides precise, quantitative data with low standard deviation determinations. Polymerase IIIC (Pol IIIC) assay. DNA polymerase activity (or inhibition thereof) was measured in a 96-well plate format. B. subtilis Pol IIIC was isolated as described by Hammond and Brown (Protein Expr. Purif., 3: 65-70 (1992)). Each 25 µl assay contained 30 mM Tris, pH 7.5, 10 mM magnesium acetate, 4 mM dithiothreitol, 20% glycerol, with 25 µM dATP, dCTP, dGTP and 10 µM dTTP (^3H-labelled at 1.44 Ci/mmole) and 0.4 mg/ml activated calf thymus DNA as substrates, as described previously (see Barnes et al, op. cit). Assays were initiated by the addition of 0.025 to 0.06 units of enzyme 1 unit is the amount required to incorporate 250 pmoles of [^3H] dTMP in a standard assay), incubated for 10 minutes at 30°C and terminated by the addition of 200 µl of cold 10% trichloroacetic acid (TCA),10 mM sodium pyrophosphate. Precipitated labeled DNA was collected on glass fiber filter plates, washed, dried, and counted in a liquid scintillation counter. Determination of Ki values. DNA polymerase activity was measured in a 96-well plate format in the absence of dGTP or dATP, depending on the structure of the test compound. Each 25 µl assay contained 30 mM Tris, pH 7.5, 10 mM magnesium acetate, 4 mM dithiothreitol, 20% glycerol, with 25 µM dATP, dCTP, and 10 µM dTTP (^3H-labelled at 1.44 Ci/mmole) and 0.4 mg/ml activated calf thymus DNA as substrates, as described previously. To each well were added 2 µl of compound solution to give final concentrations ranging from 20 - 0.027 µg/ml in the assay. Assays were initiated by the addition of 0.025 to 0.06 units of enzyme (1 unit is the amount required to incorporate 250 pmoles of [^3H] dTMP in a standard assay), incubated for 10 minutes at 30 °C and terminated by the addition of 200 µl of cold 10% trichloroacetic acid, 10 mM sodium pyrophosphate. Precipitated labeled DNA was collected on glass fiber filter plates, washed, dried, and counted in a liquid scintillation counter. Ki is the concentration of test compound that reduces the control polymerase IIIC activity by 50 percent.
as §2

Another assay relates to S.aureus (Smith). Described as above. The class given is cell-based, Staphylococcus aureus. Particulars: Staphylococcus aureus; HBI medium, 16 to 18 hours at 37°C; read-out: MIC (µg/ml) S.aureus (Smith). As to the method: as §1, §2
Another assay deals with E. fecalis. The assay is described as above. In kind it is cell-based, Enterococcus fecalis. Particulars: Enterococcus; HBI medium, 16 to 18 hours at 37°C; read-out: MIC (µg/ml) E. fecalis. The protocol:
as §1, §2

In a further assay the test system is E. fecium. The description is as above. The class given is cell-based, Enterococcus fecium. Particulars: Enterococcus; HBI medium, 16 to 18 hours at 37°C; read-out: MIC (µg/ml) E. fecium. The protocol:
as §1, §2

A further assay concerns E. coli. Described as above. The class given is cell-based, Escherichia coli. Particulars: Escherichia coli, read-out: MIC (µg/ml) E. coli. As to the method: as §3, §2
[1] abbreviates: HBI medium, 16 to 18 hours at 37°C.

T1 sequence (P13267 whole entry): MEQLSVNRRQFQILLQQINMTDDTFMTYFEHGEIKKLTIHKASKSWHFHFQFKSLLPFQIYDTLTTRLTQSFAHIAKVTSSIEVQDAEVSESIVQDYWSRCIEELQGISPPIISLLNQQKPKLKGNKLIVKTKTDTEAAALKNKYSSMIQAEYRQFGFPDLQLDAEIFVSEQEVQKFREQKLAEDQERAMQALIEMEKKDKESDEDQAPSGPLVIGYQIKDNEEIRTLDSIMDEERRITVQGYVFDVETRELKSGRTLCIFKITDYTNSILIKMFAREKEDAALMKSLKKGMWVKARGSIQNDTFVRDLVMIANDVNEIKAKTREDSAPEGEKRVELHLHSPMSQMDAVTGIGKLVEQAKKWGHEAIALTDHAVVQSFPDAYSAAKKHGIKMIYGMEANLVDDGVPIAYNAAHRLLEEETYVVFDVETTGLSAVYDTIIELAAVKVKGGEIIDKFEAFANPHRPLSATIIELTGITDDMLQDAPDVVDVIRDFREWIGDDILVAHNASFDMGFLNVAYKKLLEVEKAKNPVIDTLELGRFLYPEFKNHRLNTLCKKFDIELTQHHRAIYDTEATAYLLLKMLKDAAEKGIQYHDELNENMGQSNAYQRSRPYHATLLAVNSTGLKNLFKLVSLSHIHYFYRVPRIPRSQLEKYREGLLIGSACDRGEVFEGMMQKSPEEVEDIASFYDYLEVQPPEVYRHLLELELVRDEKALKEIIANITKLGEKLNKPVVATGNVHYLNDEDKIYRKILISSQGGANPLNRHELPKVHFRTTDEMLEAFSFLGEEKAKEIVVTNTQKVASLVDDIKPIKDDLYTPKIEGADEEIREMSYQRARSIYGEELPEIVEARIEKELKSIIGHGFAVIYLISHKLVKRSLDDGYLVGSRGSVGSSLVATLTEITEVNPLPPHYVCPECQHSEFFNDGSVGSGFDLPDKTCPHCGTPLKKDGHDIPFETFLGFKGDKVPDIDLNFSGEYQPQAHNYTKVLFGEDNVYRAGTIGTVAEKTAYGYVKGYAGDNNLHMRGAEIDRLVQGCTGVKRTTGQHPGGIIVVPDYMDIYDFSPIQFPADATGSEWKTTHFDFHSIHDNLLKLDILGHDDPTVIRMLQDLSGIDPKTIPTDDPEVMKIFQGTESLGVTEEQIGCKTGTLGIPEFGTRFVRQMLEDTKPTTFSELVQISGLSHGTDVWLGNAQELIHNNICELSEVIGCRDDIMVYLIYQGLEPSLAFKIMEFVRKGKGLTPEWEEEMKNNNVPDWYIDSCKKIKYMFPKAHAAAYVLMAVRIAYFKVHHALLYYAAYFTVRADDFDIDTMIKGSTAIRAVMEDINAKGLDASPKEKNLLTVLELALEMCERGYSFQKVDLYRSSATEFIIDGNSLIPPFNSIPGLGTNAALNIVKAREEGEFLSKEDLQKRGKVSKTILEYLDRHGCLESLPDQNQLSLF

In general, Ki refers to a dissociation constant, usually derived from enzyme kinetics or from competition with a known ligand. A higher Ki goes with a looser hold on the target. Turning to `CCc1cc(Nc2cc(=O)n(CCCCCN3CCCC4CN(c5cc6c(cc5F)c(=O)c(C(=O)O)cn6CC)CC43)c(=O)[nH]2)ccc1C` (centres unmarked) [Compound 80, 3-{5-[1-(1-ethyl-3-carboxy-4-oxo-6-fluoro-7-quinolyl)-3-(1,3-diazabicyclononyl)]pentyl}-6-(3-ethyl-4-methylanilino)uracil], on B. subtilis Pol IIIC, affinity was put at a Ki of 0.037 µM. For the same compound, the MIC is 2.5 µg/mL (≈ 3.72 µM) in the assay on B. subtilis; 7.5 µg/mL (≈ 11.1 µM) in the assay on S. aureus; 5 µg/mL (≈ 7.43 µM) with S.aureus (Smith); 12.5 µg/mL (≈ 18.6 µM) with E. fecalis; 20 µg/mL (≈ 29.7 µM) with E. fecium; 0.8 µg/mL (≈ 1.19 µM) in the assay with E. coli.
Regarding `CCc1cc(Nc2cc(=O)n(CCCCCN3CCC4CN(c5cc6c(cc5F)c(=O)c(C(=O)O)cn6C5CC5)CC43)c(=O)[nH]2)ccc1C` (centres unmarked) [Compound 81, 3-{5-[1-(1-cyclopropyl-3-carboxy-4-oxo-6-fluoro-7-quinolyl)-3-(1,3-diazabicyclooctyl)]pentyl}-6-(3-ethyl-4-methylanilino)uracil], at B. subtilis Pol IIIC, the Ki amounted to 0.04 µM. The MIC in the assay with B. subtilis was 1.25 µg/mL (≈ 1.86 µM); with S. aureus, 5 µg/mL (≈ 7.45 µM); in the assay on S.aureus (Smith) it was 2.5 µg/mL (≈ 3.73 µM); with E. fecalis, 3.7 µg/mL (≈ 5.52 µM); in the assay with E. fecium it was 12.5 µg/mL (≈ 18.6 µM); in the assay with E. coli (setting [1]) it was greater than 80 µg/mL.
At B. subtilis Pol IIIC, `CCc1cc(Nc2cc(=O)n(CCCCCN3CCCC4CN(c5cc6c(cc5F)c(=O)c(C(=O)O)cn6C5CC5)CC43)c(=O)[nH]2)ccc1C` (centres unmarked) [Compound 82, 3-{5-[1-(1-cyclopropyl-3-carboxy-4-oxo-6-fluoro-7-quinolyl)-3-(1,3-diazabicyclononyl)]pentyl}-6-(3-ethyl-4-methylanilino)uracil] came in with a Ki of 0.041 µM. Further, the MIC is 1.25 µg/mL (≈ 1.83 µM) in the assay with B. subtilis; 2.5 µg/mL (≈ 3.65 µM) in the assay on S. aureus; 1.25 µg/mL (≈ 1.83 µM) in the assay on S.aureus (Smith); 20 µg/mL (≈ 29.2 µM) in the assay on E. fecalis; greater than 80 µg/mL with E. fecium; greater than 80 µg/mL in the assay with E. coli (setting [1]).
On B. subtilis Pol IIIC, `CCc1cc(Nc2cc(=O)n(CCCCCNC3CCN(c4cc5c(cc4F)c(=O)c(C(=O)O)cn5C4CC4)C3)c(=O)[nH]2)ccc1C` (centres unmarked) [Compound 83, 3-{5-[1-(1-cyclopropyl-3-carboxy-4-oxo-6-fluoro-7-quinolyl)-3-(pyrrolidinylamino)]pentyl}-6-(3-ethyl-4-methylanilino)uracil] showed a Ki of 0.041 µM. For the same compound, the MIC in the assay on B. subtilis is 3.7 µg/mL (≈ 5.74 µM); with S. aureus it was 20 µg/mL (≈ 31 µM); in the assay on S.aureus (Smith), 5 µg/mL (≈ 7.75 µM); with E. fecalis, 5 µg/mL (≈ 7.75 µM); with E. fecium, 40 µg/mL (≈ 62 µM); in the assay with E. coli (setting [1]), greater than 80 µg/mL.
`CCc1cc(Nc2cc(=O)n(CCCCCN3CCOC4CN(c5cc6c(cc5F)c(=O)c(C(=O)O)cn6C5CC5)CC43)c(=O)[nH]2)ccc1C` (centres unmarked) [Compound 84, 3-{5-[1-(1-cyclopropyl-3-carboxy-4-oxo-6-fluoro-7-quinolyl)-3-(5-oxa-1,3-diazabicyclononyl)]pentyl}-6-(3-ethyl-4-methylanilino)uracil] gave an inhibitory constant (Ki) at B. subtilis Pol IIIC of 0.033 µM. Further, the MIC in the assay with B. subtilis was 0.313 µg/mL (≈ 0.456 µM); in the assay on S. aureus, 1.25 µg/mL (≈ 1.82 µM); in the assay with S.aureus (Smith), 0.625 µg/mL (≈ 0.91 µM); with E. fecalis, 2.5 µg/mL (≈ 3.64 µM); in the assay with E. fecium, 25 µg/mL (≈ 36.4 µM); in the assay on E. coli (setting [1]) it was greater than 80 µg/mL.
`CCc1cc(Nc2cc(=O)n(CCCCCN3CCOC4CN(c5c(F)cc6c(=O)c(C(=O)O)cn(CC)c6c5F)CC43)c(=O)[nH]2)ccc1C` (centres unmarked) [Compound 85, 3-{5-[1-(1-ethyl-3-carboxy4-oxo-6,8-difluoro-7-quinolyl)-3-(5-oxa-1,3-diazabicyclononyl)]pentyl)-6-(3-ethyl-4-methylanilino)uracil] had a Ki at B. subtilis Pol IIIC of 0.059 µM. In addition, the MIC in the assay with B. subtilis is 0.313 µg/mL (≈ 0.452 µM); in the assay with S. aureus it was 5 µg/mL (≈ 7.22 µM); with S.aureus (Smith), 6.1 µg/mL (≈ 8.81 µM); in the assay with E. fecalis, 7.5 µg/mL (≈ 10.8 µM); in the assay with E. fecium, 12.5 µg/mL (≈ 18 µM); in the assay with E. coli (setting [1]), greater than 80 µg/mL.
In turn, `CCc1cc(Nc2cc(=O)n(CCCCCN3CC4CN(c5cc6c(cc5F)c(=O)c(C(=O)O)cn6C5CC5)CC4C3)c(=O)[nH]2)ccc1C` (centres unmarked) [Compound 86, 3-{5-[1-(1-cyclopropyl-3-carboxy-4-oxo-6-fluoro-7-quinolyl)-4-(1,4-diazabicyclooctyl)]pentyl}-6-(3-ethyl-4-methylanilino)uracil] had an inhibitory constant (Ki) at B. subtilis Pol IIIC of 0.054 µM. Besides, the MIC was 2.5 µg/mL (≈ 3.73 µM) with B. subtilis; 5 µg/mL (≈ 7.45 µM) in the assay on S. aureus; 2.5 µg/mL (≈ 3.73 µM) in the assay on S.aureus (Smith); 10 µg/mL (≈ 14.9 µM) in the assay with E. fecalis; 40 µg/mL (≈ 59.6 µM) in the assay on E. fecium; greater than 80 µg/mL in the assay on E. coli (setting [1]).
With `CCc1cc(Nc2cc(=O)n(CCCCN3CCOC4CN(c5cc6c(cc5F)c(=O)c(C(=O)O)cn6C5CC5)CC43)c(=O)[nH]2)ccc1C` (centres unmarked) [Compound 87, 3-{4-[1-(1-cyclopropyl-3-carboxy-4-oxo-6-fluoro-7-quinolyl)-3-(5-oxa-1,3-diazabicyclononyl)]butyl}-6-(3-ethyl-4-methylanilino)uracil], at B. subtilis Pol IIIC, the inhibitory constant (Ki) was determined as 0.088 µM. The MIC is 0.313 µg/mL (≈ 0.465 µM) in the assay with B. subtilis; 1.87 µg/mL (≈ 2.78 µM) in the assay with S. aureus; 0.625 µg/mL (≈ 0.929 µM) in the assay on S.aureus (Smith); 2.5 µg/mL (≈ 3.72 µM) in the assay with E. fecalis; 7.5 µg/mL (≈ 11.1 µM) in the assay on E. fecium; greater than 40 µg/mL with E. coli (setting [1]).
